The text below walks through data of article PMC6677322, “Dafachronic acid promotes larval development in Haemonchus contortus by modulating dauer signalling and lipid metabolism” (PLoS Pathogens, 2019).

The target in one assay is Hc-DAF-12 (Haemonchus contortus, UniProt A0A650FMZ7). The assay can be described thus: luciferase reporter assay in HEK293 cells transfected with Hc-DAF-12. In kind it is cell-based.
The next assay deals with T1, Ac-DAF-12 (Ancylostoma caninum, UniProt A0A368G7M4).
T1 construct: gene ANCCAN_15412
T1 sequence (A0A368G7M4 entry or part of it): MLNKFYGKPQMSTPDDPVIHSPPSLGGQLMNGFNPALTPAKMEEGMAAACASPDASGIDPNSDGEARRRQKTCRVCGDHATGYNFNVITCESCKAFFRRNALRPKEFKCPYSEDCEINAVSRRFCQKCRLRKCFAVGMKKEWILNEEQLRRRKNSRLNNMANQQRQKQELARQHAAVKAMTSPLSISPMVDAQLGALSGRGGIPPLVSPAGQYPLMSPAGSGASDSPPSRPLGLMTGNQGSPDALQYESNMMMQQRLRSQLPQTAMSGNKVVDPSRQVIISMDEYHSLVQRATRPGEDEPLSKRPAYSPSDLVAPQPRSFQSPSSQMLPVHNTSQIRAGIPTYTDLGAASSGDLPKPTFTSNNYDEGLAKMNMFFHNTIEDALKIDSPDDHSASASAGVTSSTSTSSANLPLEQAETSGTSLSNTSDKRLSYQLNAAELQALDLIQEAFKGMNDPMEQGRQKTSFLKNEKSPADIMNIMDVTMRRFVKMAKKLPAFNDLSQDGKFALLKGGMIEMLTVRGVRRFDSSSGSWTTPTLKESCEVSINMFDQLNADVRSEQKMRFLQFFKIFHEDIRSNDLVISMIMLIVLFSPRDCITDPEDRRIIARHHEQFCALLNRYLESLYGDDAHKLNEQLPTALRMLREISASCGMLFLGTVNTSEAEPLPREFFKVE
In words: luciferase reporter assay in HEK293 cells. It is filed as cell-based. (In a reporter assay the amount or activity of a reporter protein is the signal.)

Each structure is given as a SMILES string.

Hc-DAF-12, sequence (A0A650FMZ7 entry or part of it): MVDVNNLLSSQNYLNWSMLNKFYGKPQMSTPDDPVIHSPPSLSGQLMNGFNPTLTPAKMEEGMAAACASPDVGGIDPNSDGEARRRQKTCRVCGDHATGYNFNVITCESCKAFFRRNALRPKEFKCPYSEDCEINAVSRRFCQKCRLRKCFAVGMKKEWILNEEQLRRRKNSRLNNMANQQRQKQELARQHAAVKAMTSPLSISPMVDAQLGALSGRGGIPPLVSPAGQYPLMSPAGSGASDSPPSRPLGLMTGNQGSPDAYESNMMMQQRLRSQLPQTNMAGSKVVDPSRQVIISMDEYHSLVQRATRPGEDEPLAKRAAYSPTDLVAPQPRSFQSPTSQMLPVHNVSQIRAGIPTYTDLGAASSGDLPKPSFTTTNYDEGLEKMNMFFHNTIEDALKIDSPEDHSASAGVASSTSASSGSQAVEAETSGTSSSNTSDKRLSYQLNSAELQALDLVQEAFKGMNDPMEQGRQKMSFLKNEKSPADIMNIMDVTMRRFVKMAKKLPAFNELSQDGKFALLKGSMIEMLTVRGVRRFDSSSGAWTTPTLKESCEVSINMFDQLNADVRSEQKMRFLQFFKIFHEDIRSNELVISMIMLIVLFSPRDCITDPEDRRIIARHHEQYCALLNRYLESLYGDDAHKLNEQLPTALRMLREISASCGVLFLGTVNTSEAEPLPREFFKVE

Take `C[C@H](CCC[C@H](C)C(=O)O)[C@H]1CC[C@H]2C3=CC[C@H]4CC(=O)CC[C@]4(C)[C@H]3CC[C@]12C` [(25S)-Δ7-DA]: the values for the EC50 on Hc-DAF-12 and on Ac-DAF-12 were 12.5 nM and 12.8 nM, respectively.

In general, EC50 refers to the concentration giving half of the maximal effect. A lower EC50 goes with higher potency in that assay.
